Reference: patent US20250295646A1, “METHODS OF USE OF T-TYPE CALCIUM CHANNEL MODULATORS” (Praxis Precision Medicines, Inc., priority 2022, published 2025)

Tested on: adult patients with essential tremor
Assay: Example 16: video-reviewed TETRAS performance subscale and upper limb score; for TETRAS Performance Subscale Total Score by Video Review, Change from Baseline, Mean (SD): test concentration or dose not given here; for TETRAS Performance Subscale Total Score by Video Review, Change from Baseline, Median: test concentration or dose not given here; for TETRAS Performance Subscale Total Score by Video Review, Mean (SD): test concentration or dose not given here; for TETRAS Performance Subscale Total Score by Video Review, Median: test concentration or dose not given here
Assay type: in vivo, human
From the text: Video-reviewed TETRAS Analyses Video reviewed TETRAS assessments were generally consistent with those conducted at the clinic. Video reviewed TETRAS performance subscale total scores are summarized for Part A, the open-label titration phase of Part B, and the randomized withdrawal phase of Part B in Table 42, Table 43, and Table 44.
Video reviewed upper limb score values were generally consistent with those conducted at the clinic and are summarized for Part A, the open-label titration phase of Part B, and the randomized withdrawal phase of Part B in Table 45, Table 46, and Table 47, respectively.

[1] = Day 21, Part B Open-Label Titration Phase (N = 17)
[2] = Day 21, Part B, Formula (I) arm (N = 6)
[3] = Day 42 6 hours Post - dose (Randomization Baseline), Part B, Formula (I) arm (N = 6)
[4] = Day 42, 6 hours Post - dose, Part B Open-Label Titration Phase (N = 17)
[5] = Day 42, 6 hours Post - dose, Part B, Formula (I) arm (N = 6)
[6] = Day 42, Pre - dose, Part B Open-Label Titration Phase (N = 17)
[7] = Day 42, Pre - dose, Part B, Formula (I) arm (N = 6)
[8] = Day 56, Part B, Formula (I) arm (N = 6)
[9] = Day 70, Part B, Formula (I) arm (N = 6)

CC(C)(C)NC(=O)CN1CCC(CNC(=O)c2cc(F)cc(Cl)c2)CC1 [compound of formula (I), N-((1-(2-(tert-butylamino)-2-oxoethyl)piperidin-4-yl)methyl)-3-chloro-5-fluorobenzamide]
TETRAS Upper Limb Score by Video Review, Mean (SD) [1]: 9.63 (2.478) | TETRAS Upper Limb Score by Video Review, Median [1]: 10.00 | TETRAS Upper Limb Score by Video Review, Percentage Change from Baseline in Tremor Amplitude, Mean (SD) [1]: −9.74 (24.458) % | TETRAS Upper Limb Score by Video Review, Percentage Change from Baseline in Tremor Amplitude, Median [1]: −9.15% | TETRAS Performance Subscale Total Score by Video Review, Change from Baseline, Mean (SD) [2]: 0.08 (2.396) | TETRAS Performance Subscale Total Score by Video Review, Change from Baseline, Median [2]: 0.50 | TETRAS Performance Subscale Total Score by Video Review, Mean (SD) [2]: 22.42 (3.277) | TETRAS Performance Subscale Total Score by Video Review, Median [2]: 22.00 | TETRAS Performance Subscale Total Score by Video Review, Percentage Change from Baseline in Tremor Amplitude, Mean (SD) [2]: 0.67 (15.665) % | TETRAS Performance Subscale Total Score by Video Review, Percentage Change from Baseline in Tremor Amplitude, Median [2]: 3.53% | TETRAS Upper Limb Score by Video Review, Change from Baseline, Mean (SD) [2]: 0.17 (1.211) | TETRAS Upper Limb Score by Video Review, Change from Baseline, Median [2]: 0.00 | TETRAS Upper Limb Score by Video Review, Mean (SD) [2]: 10.08 (0.861) | TETRAS Upper Limb Score by Video Review, Median [2]: 10.00 | TETRAS Upper Limb Score by Video Review, Percentage Change from Baseline in Tremor Amplitude, Mean (SD) [2]: 2.64 (20.424) % | TETRAS Upper Limb Score by Video Review, Percentage Change from Baseline in Tremor Amplitude, Median [2]: 0.00% | TETRAS Performance Subscale Total Score by Video Review, Mean (SD) [3]: 19.92 (5.229) | TETRAS Performance Subscale Total Score by Video Review, Median [3]: 20.25 | TETRAS Upper Limb Score by Video Review, Mean (SD) [3]: 8.42 (2.417) | TETRAS Upper Limb Score by Video Review, Median [3]: 9.25 | TETRAS Performance Subscale Total Score by Video Review, Change from Baseline, Mean (SD) [4]: −3.18 (3.133) | TETRAS Performance Subscale Total Score by Video Review, Change from Baseline, Median [4]: −3.50 | TETRAS Performance Subscale Total Score by Video Review, Mean (SD) [4]: 20.32 (7.564) | TETRAS Performance Subscale Total Score by Video Review, Median [4]: 20.00 | TETRAS Performance Subscale Total Score by Video Review, Percentage Change from Baseline in Tremor Amplitude, Mean (SD) [4]: −18.90 (18.026) % | TETRAS Performance Subscale Total Score by Video Review, Percentage Change from Baseline in Tremor Amplitude, Median [4]: −22.26% | TETRAS Upper Limb Score by Video Review, Change from Baseline, Mean (SD) [4]: −1.77 (1.633) | TETRAS Upper Limb Score by Video Review, Change from Baseline, Median [4]: −1.50 | TETRAS Upper Limb Score by Video Review, Mean (SD) [4]: 8.95 (2.902) | TETRAS Upper Limb Score by Video Review, Median [4]: 9.00 | TETRAS Upper Limb Score by Video Review, Percentage Change from Baseline in Tremor Amplitude, Mean (SD) [4]: −26.26 (22.691) % | TETRAS Upper Limb Score by Video Review, Percentage Change from Baseline in Tremor Amplitude, Median [4]: −25.01% | TETRAS Performance Subscale Total Score by Video Review, Change from Baseline, Mean (SD) [5]: −2.42 (3.484) | TETRAS Performance Subscale Total Score by Video Review, Change from Baseline, Median [5]: −3.00 | TETRAS Performance Subscale Total Score by Video Review, Percentage Change from Baseline in Tremor Amplitude, Mean (SD) [5]: −14.27 (20.962) % | TETRAS Performance Subscale Total Score by Video Review, Percentage Change from Baseline in Tremor Amplitude, Median [5]: −19.21% | TETRAS Upper Limb Score by Video Review, Change from Baseline, Mean (SD) [5]: −1.50 (2.025) | TETRAS Upper Limb Score by Video Review, Change from Baseline, Median [5]: −1.25 | TETRAS Upper Limb Score by Video Review, Percentage Change from Baseline in Tremor Amplitude, Mean (SD) [5]: −21.52 (28.723) % | TETRAS Upper Limb Score by Video Review, Percentage Change from Baseline in Tremor Amplitude, Median [5]: −21.24% | TETRAS Performance Subscale Total Score by Video Review, Change from Baseline, Mean (SD) [6]: −2.32 (2.272) | TETRAS Performance Subscale Total Score by Video Review, Change from Baseline, Median [6]: −2.50 | TETRAS Performance Subscale Total Score by Video Review, Mean (SD) [6]: 21.18 (7.916) | TETRAS Performance Subscale Total Score by Video Review, Median [6]: 19.50 | TETRAS Performance Subscale Total Score by Video Review, Percentage Change from Baseline in Tremor Amplitude, Mean (SD) [6]: −14.41 (13.541) % | TETRAS Performance Subscale Total Score by Video Review, Percentage Change from Baseline in Tremor Amplitude, Median [6]: −16.46% | TETRAS Upper Limb Score by Video Review, Change from Baseline, Mean (SD) [6]: −1.41 (1.429) | TETRAS Upper Limb Score by Video Review, Change from Baseline, Median [6]: −1.00 | TETRAS Upper Limb Score by Video Review, Mean (SD) [6]: 9.32 (2.943) | TETRAS Upper Limb Score by Video Review, Median [6]: 9.50 | TETRAS Upper Limb Score by Video Review, Percentage Change from Baseline in Tremor Amplitude, Mean (SD) [6]: −21.20 (19.707) % | TETRAS Upper Limb Score by Video Review, Percentage Change from Baseline in Tremor Amplitude, Median [6]: −17.46% | TETRAS Performance Subscale Total Score by Video Review, Change from Baseline, Mean (SD) [7]: −1.33 (2.338) | TETRAS Performance Subscale Total Score by Video Review, Change from Baseline, Median [7]: −1.00 | TETRAS Performance Subscale Total Score by Video Review, Mean (SD) [7]: 21.00 (5.263) | TETRAS Performance Subscale Total Score by Video Review, Median [7]: 22.25 | TETRAS Performance Subscale Total Score by Video Review, Percentage Change from Baseline in Tremor Amplitude, Mean (SD) [7]: −8.23 (14.278) % | TETRAS Performance Subscale Total Score by Video Review, Percentage Change from Baseline in Tremor Amplitude, Median [7]: −6.88% | TETRAS Upper Limb Score by Video Review, Change from Baseline, Mean (SD) [7]: −0.75 (0.935) | TETRAS Upper Limb Score by Video Review, Change from Baseline, Median [7]: −0.50 | TETRAS Upper Limb Score by Video Review, Mean (SD) [7]: 9.17 (1.862) | TETRAS Upper Limb Score by Video Review, Median [7]: 9.25 | TETRAS Upper Limb Score by Video Review, Percentage Change from Baseline in Tremor Amplitude, Mean (SD) [7]: −12.31 (14.247) % | TETRAS Upper Limb Score by Video Review, Percentage Change from Baseline in Tremor Amplitude, Median [7]: −9.15% | TETRAS Performance Subscale Total Score by Video Review, Change from Baseline, Mean (SD) [8]: −1.33 (4.771) | TETRAS Performance Subscale Total Score by Video Review, Change from Baseline, Median [8]: −0.50 | TETRAS Performance Subscale Total Score by Video Review, Change from Randomization, Mean (SD) [8]: 1.08 (2.311) | TETRAS Performance Subscale Total Score by Video Review, Change from Randomization, Median [8]: 0.75 | TETRAS Performance Subscale Total Score by Video Review, Mean (SD) [8]: 21.00 (6.542) | TETRAS Performance Subscale Total Score by Video Review, Median [8]: 21.75 | TETRAS Performance Subscale Total Score by Video Review, Percentage Change from Baseline in Tremor Amplitude, Mean (SD) [8]: −6.83 (27.753) % | TETRAS Performance Subscale Total Score by Video Review, Percentage Change from Baseline in Tremor Amplitude, Median [8]: −3.23% | TETRAS Performance Subscale Total Score by Video Review, Percentage Change from Randomization in Tremor Amplitude, Mean (SD) [8]: 6.68 (14.469) % | TETRAS Performance Subscale Total Score by Video Review, Percentage Change from Randomization in Tremor Amplitude, Median [8]: 5.12% | TETRAS Upper Limb Score by Video Review, Change from Baseline, Mean (SD) [8]: −0.75 (2.115) | TETRAS Upper Limb Score by Video Review, Change from Baseline, Median [8]: −0.25 | TETRAS Upper Limb Score by Video Review, Change from Randomization, Mean (SD) [8]: 0.75 (0.612) | TETRAS Upper Limb Score by Video Review, Change from Randomization, Median [8]: 0.50 | TETRAS Upper Limb Score by Video Review, Mean (SD) [8]: 9.17 (2.658) | TETRAS Upper Limb Score by Video Review, Median [8]: 10.00 | TETRAS Upper Limb Score by Video Review, Percentage Change from Baseline in Tremor Amplitude, Mean (SD) [8]: −10.13 (31.224) % | TETRAS Upper Limb Score by Video Review, Percentage Change from Baseline in Tremor Amplitude, Median [8]: −4.57% | TETRAS Upper Limb Score by Video Review, Percentage Change from Randomization in Tremor Amplitude, Mean (SD) [8]: 12.91 (10.020) % | TETRAS Upper Limb Score by Video Review, Percentage Change from Randomization in Tremor Amplitude, Median [8]: 9.15% | TETRAS Performance Subscale Total Score by Video Review, Change from Baseline, Mean (SD) [9]: 0.60 (2.104) | TETRAS Performance Subscale Total Score by Video Review, Change from Baseline, Median [9]: 0.50 | TETRAS Performance Subscale Total Score by Video Review, Change from Randomization, Mean (SD) [9]: 3.60 (3.343) | TETRAS Performance Subscale Total Score by Video Review, Change from Randomization, Median [9]: 4.50 | TETRAS Performance Subscale Total Score by Video Review, Mean (SD) [9]: 22.00 (4.962) | TETRAS Performance Subscale Total Score by Video Review, Median [9]: 22.50 | TETRAS Performance Subscale Total Score by Video Review, Percentage Change from Baseline in Tremor Amplitude, Mean (SD) [9]: 3.98 (13.794) % | TETRAS Performance Subscale Total Score by Video Review, Percentage Change from Baseline in Tremor Amplitude, Median [9]: 3.53% | TETRAS Performance Subscale Total Score by Video Review, Percentage Change from Randomization in Tremor Amplitude, Mean (SD) [9]: 21.30 (20.204) % | TETRAS Performance Subscale Total Score by Video Review, Percentage Change from Randomization in Tremor Amplitude, Median [9]: 27.66% | TETRAS Upper Limb Score by Video Review, Change from Baseline, Mean (SD) [9]: 0.30 (0.908) | TETRAS Upper Limb Score by Video Review, Change from Baseline, Median [9]: 0.50 | TETRAS Upper Limb Score by Video Review, Change from Randomization, Mean (SD) [9]: 1.80 (2.139) | TETRAS Upper Limb Score by Video Review, Change from Randomization, Median [9]: 2.50 | TETRAS Upper Limb Score by Video Review, Mean (SD) [9]: 9.80 (1.924) | TETRAS Upper Limb Score by Video Review, Median [9]: 9.50 | TETRAS Upper Limb Score by Video Review, Percentage Change from Baseline in Tremor Amplitude, Mean (SD) [9]: 5.17 (15.525) % | TETRAS Upper Limb Score by Video Review, Percentage Change from Baseline in Tremor Amplitude, Median [9]: 9.15% | TETRAS Upper Limb Score by Video Review, Percentage Change from Randomization in Tremor Amplitude, Mean (SD) [9]: 25.58 (31.214) % | TETRAS Upper Limb Score by Video Review, Percentage Change from Randomization in Tremor Amplitude, Median [9]: 38.10%
